Experimental findings from patent publication US10919899B2, “Imidazopyrazine compounds, preparation methods and uses thereof” (DONGGUAN ZHENXING-BEITE MEDICINE TECHNOLOGY CO., LTD., priority 2017, dated 2021) are described below.

The nature of data set [1]: Pharmacokinetic (PK) assay in rats. The class given is in vivo, rat. The note with it: male SD rat, 20 mg/kg oral. The protocol: A male SD rat with 250-300 g of weight was fasted overnight before the assay. The compound to be tested was dissolved in 30% sulfobutyl ether-β-cyclodextrin (SBE-β-CD) and intragastrically administrated to the rat by 20 mg/kg of dosages. Take blood at 15th minute, 30th minute, and 1st, 2nd, 3rd, 4th, 6th, 8th, and 24th hours after the administratation, and about 0.3 mL of blood was taken at each time point. The blood samples were placed into centrifuge tubes containing K2-EDTA (dipotassium ethylene diamine tetraacetate) and plasma was taken via centrifugal treatment (2,000 g, 10 minutes, 4° C.) and stored in a −80° C. of ultra low temperature refrigerator. 50 μL of plasma sample was mixed with 50 μL of internal standard (IS) and extracted with ethyl acetate. After vacuum dried, the residue was re-dissolved in acetonitrile The sample was filtered and injected into LC-MS/MS to be analyzed.

For data set [2], the system named is HCC827 NSCLC cell. Briefly: Tumor cell proliferation inhibition assay (CellTiter-Glo), HCC827. In kind it is cell-based. The note with it: Homo sapiens, 72 hours, 10% fetal calf serum, read-out: HCC827 anti-proliferative IC50 level. The procedure: (§1) Cell viability was evaluated by measuring a content of triphosadenine (ATP) by using CellTiter-Glo luminescent cell viability assay kit method (Promega, # G7572, Madison, Wis.). Diffuse large B cell lymphoma cell strain TMD-8 and HCC827 NSCL cell strains are purchased from Shanghai Fudan IBS Cell Center and American Type Culture Collection (ATCC). After the cells were digested from a cell culture dish by pancreatin and re-suspended by DPBS culture medium, a Scepter automatic cell counter (Millipore, # PHCC00000) was used for counting to measure a cell density. The cells were diluted to be a solution containing 44,000 cells per milliliter. The cell solution with the adjusted density was added into a cell assay plate with 90 μl per well. The well plate was placed to an incubator with 5% CO2 at 37° C. to be incubated for 24 hours and then added with the compound to be tested with different concentrations. The cells and the compound were together incubated for 72 hours in the presence of 10% fetal calf serum. The content of ATP was measured by using CellTiter-Glo® Luminescent Cell Viability Assay kit (referring to manufacturer's instruction) to evaluate the inhibition to the cell growth. Briefly speaking, each well was added with 30 μl of CellTiter-Glo® reagent, the plate was shaken for 10 minutes to induce the cells to be lysed, and fluorescence signal was detected and recorded by fluorescencelchemiluminescence analyzer Fluoroskan Ascent FL (Thermo Scientific Fluoroskan Ascent FL). The maximal signal value was obtained from cells processed by dimethyl sulfoxide (DMSO) for 72 or 120 hours. The minimal signal value obtained from separate culture medium (wherein the number of cells was zero) was defined as 0. Inhibition ratio %=(maximal signal value-compound signal value)/(maximal signal value−minimal signal value)×100%. The data was processed by using GraphPad Prism V5.0 (GraphPad Software San Diego, Calif.) software. IC50 value was fitted and calculated via S-shaped dose-response curve.
For orientation: Cellular ATP, detected with luciferase, serves as a proxy for viable cell number.

Data set [3] concerns Diffuse large B cell lymphoma cell strain TMD-8. In words: Tumor cell proliferation inhibition assay (CellTiter-Glo), TMD-8. The class given is cell-based. Particulars: Homo sapiens, TMD8; 72 hours, 10% fetal calf serum; read-out: TMD-8 anti-proliferative IC50 level. The protocol:
as §1

The target of data set [4] is Txk (h) (Homo sapiens (Human), UniProt P42681). In words: Txk activity inhibition assay (radioactive protein kinase method, Eurofins). The note with it: Km ATP, radiometric. The class given is biochemical. The protocol:
The inhibitory activities of the compound to Tec, Txk, and ITK of human were performed by Eurofins Pharma Discovery Services UK Limited (UK) of the United Kingdom. In the case of Km ATP, the radioactive protein kinase method was adopted by the test. The kinase was diluted with buffer solution (20 mM MOPS, 1 mM EDTA, 0.01% Brij-35, 5% Glycerol, 0.1% […], 1 mg/mL BSA) before the reaction. The compound was dissolved in 100% DMSO and was of 50-fold final reaction concentration.
TxK reaction solution contained 8 mM MOPS pH 7.0, 0.2 mM EDTA, 250 μM […], 10 mM magnesium acetate, and [γ-^33P]-ATP (about 500 cpm/pmol), 200 μM ATP-Mg was added, after mixing, the reaction was started, the incubation was performed for 40 minutes at room temperature, and 3% phosphoric acid solution was added to terminate the reaction, 10 μl (reaction solution) was placed on P30 filtration membrane, washed with 75 mM phosphoric acid for 5 minutes, and dried with methanol for one time, and then scintillation counting was performed.

In data set [5] the target is BTK (Homo sapiens (Human), UniProt Q06187). In words: BTK kinase activity inhibition assay (Caliper mobility shift). The class given is biochemical. The note with it: ATP 90 μM, read-out: BTK IC50 level. The procedure:
Activity of BTK protein kinase was tested by Caliper mobility shift assay (referring to J Biomol Screen 14:31, 2009). The compound of the present disclosure was dissolved in DMSO and then diluted 10-fold with kinase buffer solution (50 mM HEPES-pH 7.5, 0.0015% Brij-35, 10 mM MgCl2, 2 mM DTT). […] 10 μl of a substrate solution of a substrate FAM-labeled SRCtide peptide (Biochem, Cat. No. 112394) and ATP (90 μM) with 2.5-fold final reaction concentration was further added to start the reaction. Then incubation was performed for 10 minutes at room temperature. After incubation for 1 hour 28° C., 25 μl of stopping solution (100 mM HEPES, pH 7.5, 0.015% Brij-35, 0.2% Coating Reagent #3, 50 mM EDTA) was added to terminate the reaction. The conversion ratio data was read on Caliper EZ Reader II (Caliper Life Sciences). The inhibition ratio was calculated and the calculation formula is: inhibition ratio %=(max-conversion)/(max-min)×100 %.

BTK, sequence (Q06187 whole entry): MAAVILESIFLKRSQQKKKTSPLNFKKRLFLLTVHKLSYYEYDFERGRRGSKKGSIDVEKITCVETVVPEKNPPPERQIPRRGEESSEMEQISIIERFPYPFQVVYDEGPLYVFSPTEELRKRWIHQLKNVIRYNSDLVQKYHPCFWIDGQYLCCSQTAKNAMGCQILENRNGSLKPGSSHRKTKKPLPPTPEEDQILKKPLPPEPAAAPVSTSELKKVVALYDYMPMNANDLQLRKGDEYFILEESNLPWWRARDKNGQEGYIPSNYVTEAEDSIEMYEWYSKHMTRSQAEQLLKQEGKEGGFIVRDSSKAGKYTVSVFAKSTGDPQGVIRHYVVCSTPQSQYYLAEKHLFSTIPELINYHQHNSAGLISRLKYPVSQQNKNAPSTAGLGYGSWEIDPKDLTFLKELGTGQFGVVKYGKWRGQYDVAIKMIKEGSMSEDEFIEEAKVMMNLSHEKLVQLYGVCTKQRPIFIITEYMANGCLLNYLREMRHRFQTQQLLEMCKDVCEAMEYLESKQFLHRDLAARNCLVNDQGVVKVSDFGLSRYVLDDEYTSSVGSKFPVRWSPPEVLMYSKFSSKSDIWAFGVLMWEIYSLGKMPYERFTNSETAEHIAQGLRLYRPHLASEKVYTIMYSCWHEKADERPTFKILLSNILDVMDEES
Txk (h), sequence (P42681 whole entry): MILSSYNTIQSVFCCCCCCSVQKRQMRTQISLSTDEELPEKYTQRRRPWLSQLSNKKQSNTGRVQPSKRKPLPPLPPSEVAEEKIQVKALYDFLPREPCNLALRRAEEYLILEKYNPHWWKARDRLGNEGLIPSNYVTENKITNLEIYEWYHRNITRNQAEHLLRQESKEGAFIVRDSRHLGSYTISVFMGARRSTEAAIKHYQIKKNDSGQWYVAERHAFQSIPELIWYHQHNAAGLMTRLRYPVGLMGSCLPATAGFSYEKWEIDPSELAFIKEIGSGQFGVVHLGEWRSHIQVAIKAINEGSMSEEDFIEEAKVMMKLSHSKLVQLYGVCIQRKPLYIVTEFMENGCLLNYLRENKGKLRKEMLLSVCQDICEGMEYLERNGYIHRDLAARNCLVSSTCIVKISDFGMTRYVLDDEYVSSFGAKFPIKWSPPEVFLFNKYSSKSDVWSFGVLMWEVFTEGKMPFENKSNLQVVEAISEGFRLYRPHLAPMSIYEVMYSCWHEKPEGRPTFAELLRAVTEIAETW

Take `CC#CC(=O)N1CCC[C@H]1c1nc(-c2ccc(C(=O)Nc3ccccn3)cc2)c2c(N)nccn12` [ACP-196, Acalabrutinib, reference compound]: the t1/2 in data set [1] came out at 7.9 h. In data set [1] (plasma), this compound showed an area under the curve AUC(0-inf) of 1400 ng·h/mL, a Cmax of 668 ng/mL and a half-life of 474 min. Also, in data set [1] (plasma, read-out: AUC0-24), the AUC(0-t) was 1300 ng·h/mL. Further, the IC50 in data set [2] was above 10 µM. Moreover, the 50% inhibitory concentration (IC50) in data set [3] was at most 100 nM. The IC50 in data set [4] worked out at 5 µM.

On to `CC#CC(=O)N1CCC[C@H]1c1nc(-c2ccc(OCc3ccc(C(F)(F)F)cc3)cc2)c2c(N)nccn12` [Compound 2, (S)-1-(2-(8-amino-1-(4-((4-(trifluoromethyl)benzyl)oxy)phenyl)imidazo[1,5-a]pyrazin-3-yl)pyrrolidin-1-yl)but-2-yn-1-one], for which the IC50 in data set [2] is 1 to 10 µM; in data set [5], above 750 nM; in data set [3] it was 100 to 500 nM.

On to `CC#CC(=O)N1CCC[C@H]1c1nc(-c2ccc(OCc3ccc(F)cc3)cc2)c2c(N)nccn12` [Compound 3, (S)-1-(2-(8-amino-1-(4-((4-fluorobenzyl)oxy)phenyl)imidazo[1,5-a]pyrazin-3-yl)pyrrolidin-1-yl)but-2-yn-1-one], for which the half-inhibitory concentration (IC50) is above 10 µM in data set [2], above 750 nM in data set [5] and 100 to 500 nM in data set [3].

As for `CC#CC(=O)N1CCC[C@H]1c1nc(-c2ccc(OCc3ccccn3)cc2)c2c(N)nccn12` [Compound 5, (S)-1-(2-(8-amino-1-(4-(pyridin-2-ylmethoxy)phenyl)imidazo[1,5-a]pyrazin-3-yl)pyrrolidin-1-yl)but-2-yn-1-one], the IC50 in data set [5] is 300 to 750 nM.

As for `CC#CC(=O)N1CCC[C@H]1c1nc(-c2ccc(OCc3cc(F)ccn3)cc2)c2c(N)nccn12` [Compound 6, (S)-1-(2-(8-amino-1-(4-((4-fluoropyridin-2-yl)methoxy)phenyl)imidazo[1,5-a]pyrazin-3-yl)pyrrolidin-1-yl)but-2-yn-1-one], the results for the IC50 in data set [2], in data set [5] and in data set [3] were above 10 µM, above 750 nM and 100 to 500 nM, respectively.

Take `CC#CC(=O)N1CCC[C@H]1c1nc(-c2ccc(OCc3ccccc3)nc2)c2c(N)nccn12` [Compound 9, (S)-1-(2-(8-amino-1-(6-(benzyloxy)pyridin-3-yl)imidazo[1,5-a]pyrazin-3-yl)pyrrolidin-1-yl)but-2-yn-1-one]: the IC50 in data set [5] was above 750 nM.

As for `CC#CC(=O)N1CCC[C@H]1c1nc(-c2ccc(OCCc3ccccc3)cc2)c2c(N)nccn12` [Compound 17, (S)-1-(2-(8-amino-1-(4-phenethoxyphenyl)imidazo[1,5-a]pyrazin-3-yl)pyrrolidin-1-yl)but-2-yn-1-one], the IC50 in data set [5] was in the range of 300 to 750 nM.

Turning to `C=CC(=O)N1CCC[C@H]1c1nc(-c2ccc(OCc3ccccc3)cc2)c2c(N)nccn12` [Compound 21, (S)-1-(2-(8-amino-1-(4-(benzyloxy)phenyl)imidazo[1,5-a]pyrazin-3-yl)pyrrolidin-1-yl)prop-2-en-1-one], the IC50 is above 10 µM in data set [2], at most 100 nM in data set [5] and at most 100 nM in data set [3].

For `C=CC(=O)N1CCC[C@H]1c1nc(-c2ccc(OCc3ccccc3)nc2)c2c(N)nccn12` [Compound 25, (S)-1-(2-(8-amino-1-(6-(benzyloxy)pyridin-3-yl)imidazo[1,5-a]pyrazin-3-yl)pyrrolidin-1-yl)prop-2-en-1-one], the IC50 was above 10 µM in data set [2], at most 100 nM in data set [5] and at most 100 nM in data set [3].

On to `C=CC(=O)N1CCC[C@H]1c1nc(-c2ccc(OCc3ccccn3)cc2)c2c(N)nccn12` [Compound 29, (S)-1-(2-(8-amino-1-(4-(pyridin-2-ylmethoxy)phenyl)imidazo[1,5-a]pyrazin-3-yl)pyrrolidin-1-yl)prop-2-en-1-one], for which the IC50 in data set [2] is 1 to 10 µM; in data set [5], 100 to 300 nM; in data set [3], at most 100 nM.

As a reminder, the AUC(0-inf) is total exposure, with the tail of the curve extrapolated. The low end stands for less exposure, the high end for more exposure. What is called Cmax is the maximum level reached in the sampled fluid or tissue. Broadly, the half-life is the time needed for the level to fall by half in the phase considered. Read a high half-life as slow loss. What is called IC50 is the point on the concentration scale where inhibition reaches its midpoint.
